# Laboratory results taken from patent publication US20220388964A1 (HiberCell, Inc., priority 2019, published 2022).
# How the values were obtained:
# GCN2 [1] = target: T1, GCN2 (Homo sapiens, UniProt Q9P2K8); test: TR-FRET biochemical assay for inhibition of GCN2 (Example 108, for Examples 73-105)
# GCN2 [2] = target: T1, GCN2; test: TR-FRET assay for inhibition of GCN2 (Example 107, for Examples 40-72)
# T1 sequence (Q9P2K8 whole entry): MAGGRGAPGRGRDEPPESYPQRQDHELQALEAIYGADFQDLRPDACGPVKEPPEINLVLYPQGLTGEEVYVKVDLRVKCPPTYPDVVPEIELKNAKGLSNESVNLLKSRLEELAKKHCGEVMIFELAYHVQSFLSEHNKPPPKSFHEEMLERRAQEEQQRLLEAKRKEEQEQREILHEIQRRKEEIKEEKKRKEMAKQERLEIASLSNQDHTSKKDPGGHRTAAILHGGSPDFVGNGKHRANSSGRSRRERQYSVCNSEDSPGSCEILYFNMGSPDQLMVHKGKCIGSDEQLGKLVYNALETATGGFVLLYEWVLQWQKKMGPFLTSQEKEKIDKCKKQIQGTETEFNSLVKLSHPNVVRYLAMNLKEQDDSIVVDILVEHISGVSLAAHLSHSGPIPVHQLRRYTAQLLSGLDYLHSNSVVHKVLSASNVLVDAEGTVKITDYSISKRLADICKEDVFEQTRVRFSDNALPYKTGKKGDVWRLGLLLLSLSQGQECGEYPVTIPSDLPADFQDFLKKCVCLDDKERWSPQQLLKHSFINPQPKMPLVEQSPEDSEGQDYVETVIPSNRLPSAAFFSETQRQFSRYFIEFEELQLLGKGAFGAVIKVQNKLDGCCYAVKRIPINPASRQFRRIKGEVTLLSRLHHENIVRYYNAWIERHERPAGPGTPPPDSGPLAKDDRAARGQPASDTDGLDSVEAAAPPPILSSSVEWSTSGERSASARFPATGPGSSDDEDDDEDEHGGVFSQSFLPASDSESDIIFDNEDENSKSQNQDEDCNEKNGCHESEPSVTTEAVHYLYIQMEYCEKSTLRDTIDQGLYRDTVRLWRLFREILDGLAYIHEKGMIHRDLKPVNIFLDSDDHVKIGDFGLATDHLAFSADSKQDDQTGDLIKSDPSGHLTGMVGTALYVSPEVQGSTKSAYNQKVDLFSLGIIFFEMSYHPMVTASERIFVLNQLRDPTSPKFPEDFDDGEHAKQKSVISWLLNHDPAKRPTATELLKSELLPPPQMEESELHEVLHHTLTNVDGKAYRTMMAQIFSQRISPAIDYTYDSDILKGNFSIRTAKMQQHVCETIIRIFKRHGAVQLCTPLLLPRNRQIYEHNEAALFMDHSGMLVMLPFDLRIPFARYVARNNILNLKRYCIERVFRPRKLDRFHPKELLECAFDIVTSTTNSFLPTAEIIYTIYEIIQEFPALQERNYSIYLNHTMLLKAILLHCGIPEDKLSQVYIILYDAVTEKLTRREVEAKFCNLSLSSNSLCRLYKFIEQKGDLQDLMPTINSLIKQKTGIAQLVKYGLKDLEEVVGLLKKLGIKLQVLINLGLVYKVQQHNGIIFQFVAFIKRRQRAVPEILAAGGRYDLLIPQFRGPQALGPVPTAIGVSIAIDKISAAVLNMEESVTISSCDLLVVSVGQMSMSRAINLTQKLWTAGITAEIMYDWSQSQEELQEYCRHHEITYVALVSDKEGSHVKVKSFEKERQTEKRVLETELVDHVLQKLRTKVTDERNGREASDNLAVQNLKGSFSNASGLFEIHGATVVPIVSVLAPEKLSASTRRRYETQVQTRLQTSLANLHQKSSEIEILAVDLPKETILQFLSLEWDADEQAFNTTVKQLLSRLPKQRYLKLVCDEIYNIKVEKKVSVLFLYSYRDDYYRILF
IC50 (GCN2 [1]) [nM],IC50 (GCN2 [2]) [nM],SMILES
< 500,–,"COc1ncc(Cl)cc1S(=O)(=O)Nc1ccc(F)c(-c2ccc3c(C(=O)NCC4CC4)n[nH]c3c2F)c1F [Example 85, 6-[3-(5-Chloro-2-methoxypyridine-3-sulfonamido)-2,6-difluorophenyl]-N-(cyclopropylmethyl)-7-fluoro-1H-indazole-3-carboxamide]"
< 500,–,"COc1ncc(Cl)cc1S(=O)(=O)Nc1ccc(F)c(-c2ccc3c(C(=O)NCC4CCCNC4)n[nH]c3c2F)c1F (centres unmarked) [Example 93, 6-[3-(5-Chloro-2-methoxypyridine-3-sulfonamido)-2,6-difluorophenyl]-7-fluoro-N-(piperidin-3-ylmethyl)-1H-indazole-3-carboxamide]"
< 500,–,"C#CCNC(=O)c1n[nH]c2c(F)c(-c3c(F)ccc(NS(=O)(=O)c4cc(Cl)cnc4OC)c3F)ccc12 [Example 92, 6-[3-(5-Chloro-2-methoxypyridine-3-sulfonamido)-2,6-difluorophenyl]-7-fluoro-N-(prop-2-yn-1-yl)-1H-indazole-3-carboxamide]"
2500 to 10000,–,"CNC(=O)c1n[nH]c2c(F)c(-c3c(F)ccc(NS(=O)(=O)C4CCCN(C)C4)c3F)ccc12 (centres unmarked) [Example 77, 6-[2,6-difluoro-3-(1-methylpiperidine-3-sulfonamido)phenyl]-7-fluoro-N-methyl-1H-indazole-3-carboxamide]"
2500 to 10000,–,"CNC(=O)c1n[nH]c2c(F)c(-c3c(F)ccc(NS(=O)(=O)CC4CCC(O)C4)c3F)ccc12 (mixture of isomers) [Example 78, 6-[2,6-difluoro-3-[(3-hydroxycyclopentyl)methanesulfonamido]phenyl]-7-fluoro-N-methyl-1H-indazole-3-carboxamide]"
–,500 to 2500,"CNC(=O)c1n[nH]c2c(F)c(-c3c(F)ccc(NS(=O)(=O)c4cccc5c4ncn5C)c3F)ccc12 [Example 69, 6-[2,6-Difluoro-3-(1-methyl-1,3-benzodiazole-4-sulfonamido)phenyl]-7-fluoro-N-methyl-1H-indazole-3-carboxamide]"
–,< 500,"CNC(=O)c1n[nH]c2c(F)c(-c3c(F)ccc(NS(=O)(=O)c4cc(F)cnc4OC)c3F)ncc12 [Example 70, 6-[2,6-Difluoro-3-(5-fluoro-2-methoxypyridine-3-sulfonamido)phenyl]-7-fluoro-N-methyl-1H-pyrazolo[4,3-c]pyridine-3-carboxamide]"
–,< 500,"CNC(=O)c1n[nH]c2c(F)c(-c3c(F)ccc(NS(=O)(=O)c4cc(C#N)cnc4OC)c3F)ncc12 [Example 71, 6-[3-(5-Cyano-2-methoxypyridine-3-sulfonamido)-2,6-difluorophenyl]-7-fluoro-N-methyl-1H-pyrazolo[4,3-c]pyridine-3-carboxamide]"

# Second part, the compound before the results:
SMILES,IC50 (GCN2 [1]) [nM],IC50 (GCN2 [2]) [nM]
"CNC(=O)c1n[nH]c2c(F)c(-c3c(F)ccc(NS(=O)(=O)c4cc(C#N)cnc4OC(F)F)c3F)ccc12 [Example 46, 6-[3-[5-Cyano-2-(difluoromethoxy)pyridine-3-sulfonamido]-2,6-difluorophenyl]-7-fluoro-N-methyl-1H-indazole-3-carboxamide]",–,< 500
"CCCNC(=O)c1n[nH]c2c(F)c(-c3c(F)ccc(NS(=O)(=O)c4cc(Cl)cnc4OC)c3F)ccc12 [Example 58, 6-[3-(5-Chloro-2-methoxypyridine-3-sulfonamido)-2,6-difluorophenyl]-7-fluoro-N-propyl-1H-indazole-3-carboxamide]",–,< 500
"COc1ncc(Cl)cc1S(=O)(=O)Nc1ccc(F)c(-c2ccc3c(NC(C)=O)n[nH]c3c2F)c1F [Example 44, N-(6-(3-(5-chloro-2-methoxypyridine-3-sulfonamido)-2,6-difluorophenyl)-7-fluoro-1H-indazol-3-yl)acetamide]",–,< 500
"CNC(=O)c1n[nH]c2c(F)c(-c3c(F)ccc(NS(=O)(=O)c4cccc5[nH]cnc45)c3F)ccc12 [Example 62, 6-[3-(1H-1,3-Benzodiazole-4-sulfonamido)-2,6-difluorophenyl]-7-fluoro-N-methyl-1H-indazole-3-carboxamide]",–,500 to 2500
"COc1ncc(Cl)cc1S(=O)(=O)Nc1ccc(F)c(-c2ccc3c(C(=O)NC(C)CCO)n[nH]c3c2F)c1F (centres unmarked) [Example 60, 6-[3-(5-chloro-2-methoxypyridine-3-sulfonamido)-2,6-difluorophenyl]-7-fluoro-N-(4-hydroxybutan-2-yl)-1H-indazole-3-carboxamide]",–,< 500
"CNC(=O)c1n[nH]c2c(F)c(-c3c(F)ccc(NS(=O)(=O)c4cccc5occc45)c3F)ccc12 [Example 61, 6-[3-(1-Benzofuran-4-sulfonamido)-2,6-difluorophenyl]-7-fluoro-N-methyl-1H-indazole-3-carboxamide]",–,< 500
CNC(=O)c1n[nH]c2c(F)c(-c3c(F)ccc(NS(=O)(=O)c4ccc5ccoc5c4)c3F)ccc12 [Example 68],–,500 to 2500
"CCNC(=O)c1n[nH]c2c(F)c(-c3c(F)ccc(NS(=O)(=O)c4cc(Cl)cnc4OC)c3F)ccc12 [Example 49, 6-(3-((5-Chloro-2-methoxypyridine)-3-sulfonamido)-2,6-difluorophenyl)-N-ethyl-7-fluoro-1H-indazole-3-carboxamide]",–,< 500
"COc1ncc(Cl)cc1S(=O)(=O)Nc1ccc(F)c(-c2ccc3c(C(=O)NC(C)CO)n[nH]c3c2F)c1F (centres unmarked) [Example 53, 6-[3-(5-Chloro-2-methoxypyridine-3-sulfonamido)-2,6-difluorophenyl]-7-fluoro-N-(1-hydroxypropan-2-yl)-1H-indazole-3-carboxamide]",–,< 500
"CCCC(C)NC(=O)c1n[nH]c2c(F)c(-c3c(F)ccc(NS(=O)(=O)c4cc(Cl)cnc4OC)c3F)ccc12 (centres unmarked) [Example 59, 6-[3-(5-Chloro-2-methoxypyridine-3-sulfonamido)-2,6-difluorophenyl]-7-fluoro-N-(pentan-2-yl)-1H-indazole-3-carboxamide]",–,< 500
"COc1ncc(Cl)cc1S(=O)(=O)Nc1ccc(F)c(-c2ccc3c(-c4ncco4)n[nH]c3c2F)c1F [Example 64, 5-chloro-N-[2,4-difluoro-3-[7-fluoro-3-(1,3-oxazol-2-yl)-1H-indazol-6-yl]phenyl]-2-methoxypyridine-3-sulfonamide]",–,< 500
"CNC(=O)c1n[nH]c2c(F)c(-c3c(F)ccc(NS(=O)(=O)c4cccc5ncn(C)c45)c3F)ccc12 [Example 63, 6-[2,6-Difluoro-3-(3-methyl-1,3-benzodiazole-4-sulfonamido)phenyl]-7-fluoro-N-methyl-1H-indazole-3-carboxamide]",–,< 500
"COc1ncc(Cl)cc1S(=O)(=O)Nc1ccc(F)c(-c2ccc3c(C(=O)NC4CCNC4=O)n[nH]c3c2F)c1F (centres unmarked) [Example 54, 6-[3-(5-Chloro-2-methoxypyridine-3-sulfonamido)-2,6-difluorophenyl]-7-fluoro-N-(2-oxopyrrolidin-3-yl)-1H-indazole-3-carboxamide]",–,< 500
"CNC(=O)c1n[nH]c2c(F)c(-c3c(F)ccc(NS(=O)(=O)c4cc(Cl)cnc4OC)c3F)ncc12 [Example 67, 6-[3-(5-Chloro-2-methoxypyridine-3-sulfonamido)-2,6-difluorophenyl]-7-fluoro-N-methyl-1H-pyrazolo[4,3-c]pyridine-3-carboxamide]",–,< 500
"CNC(=O)c1n[nH]c2c(F)c(-c3c(F)ccc(NS(=O)(=O)c4cccc(CO)c4)c3F)ccc12 [Example 41, 6-[2,6-Difluoro-3-[3-(hydroxymethyl)benzenesulfonamido]phenyl]-7-fluoro-N-methyl-1H-indazole-3-carboxamide]",–,500 to 2500
